Consider 18 compounds from patent US20250144067A1, “PERSONALIZED STARVATION THERAPY FOR CANCER” (Faeth Therapeutics, Inc., priority 2021, published 2025).

Counter-ions that a name gives are not always drawn.

Experiment [1] deals with NCI-H292 lung cancer cells. The experiment can be described thus: FDA drug screening, complete media vs cholesterol-free media with simvastatin (TABLE 2). Format: cell-based, human. As to conditions: for Cholesterol-free media + simvastatin (0.04 μM) / Complete Media: NCI-H292 cells; for Difference: >0 enhanced anti-cancer activity, about 0 neutral, <0 antagonist.
The test system of experiment [2] is NCI-H292 lung cancer cells. The experiment can be described thus: FDA drug screening, complete media vs cholesterol-free media without statin (TABLE 1). As to conditions: for Difference: about 0 neutral. In kind it is cell-based, human.
Setting [3] is: FDA drug library screen, cholesterol-free media with simvastatin 0.04 μM.
Where [4] appears, read: FDA drug library screen, complete media.
Setting [5] is: complete media vs cholesterol-free media + simvastatin (0.04 μM).
Setting [6] is: NCI-H292 cells, cholesterol-free media without statin.
[7] abbreviates: complete vs cholesterol-free media, greater than 0 enhanced anti-cancer activity, below 0 antagonists.
Where [8] appears, read: cholesterol-free media with simvastatin 0.04 μM, cell growth value in FDA drug screen.
Setting [9] is: complete media, cell growth value in FDA drug screen.
Where [10] appears, read: complete media minus cholesterol-free media + simvastatin.
The mark [11] stands for this setting: Complete minus Cholesterol-free, >0 enhanced anti-cancer activity, <0 antagonist.
Where [12] appears, read: NCI-H292 cells, cholesterol-free media without statin, FDA drug library screen.
Setting [13] is: NCI-H292 cells, complete media, FDA drug library screen.
Where [14] appears, read: cholesterol-free media with simvastatin 0.04 μM, FDA drug library screen (TABLE 2).
[15] abbreviates: complete media, FDA drug library screen (TABLE 2).
Setting [16] is: complete media minus cholesterol-free media + simvastatin (0.04 μM).
[17] abbreviates: drug in cholesterol-free media with simvastatin 0.04 μM.
[18] abbreviates: Complete minus Cholesterol-free, greater than 0 enhanced anti-cancer activity, below 0 antagonist.
[19] abbreviates: NCI-H292 cells, FDA drug library screen, cholesterol-free media without statin.
Setting [20] is: NCI-H292 cells, FDA drug library screen, complete media.
[21] abbreviates: FDA library drug in cholesterol-free media with simvastatin 0.04 μM.
Setting [22] is: FDA library drug in complete media.
The mark [23] stands for this setting: complete vs cholesterol-free media, >0 enhanced anti-cancer activity, <0 antagonist.
[24] abbreviates: Complete minus Cholesterol-free, greater than 0 enhanced anti-cancer activity, below 0 antagonists.
[25] abbreviates: NCI-H292 cells in cholesterol-free media without statin.
Setting [26] is: NCI-H292 cells in complete media.

`COc1ccc([C@@H]2Sc3ccccc3N(CCN(C)C)C(=O)[C@@H]2OC(C)=O)cc1` [Diltiazem (hydrochloride)]: in experiment [1] (setting [3]), the “Cholesterol-free media + simvastatin (0.04 μM)” value is on record as 1.317. Moreover, in experiment [1] (setting [4]), the “Complete Media” value was 1.159. Besides, the Difference in experiment [1] (setting [5]) was −0.16; in experiment [2] (setting [7]), −0.32. Moreover, the Cholesterol-free in experiment [2] (setting [6]) is 1.001. The same compound displayed a Complete in experiment [2] (NCI-H292 cells, complete media) of 0.6844.

On to `CO/N=C(\C(=O)N[C@@H]1C(=O)N2C(C(=O)OCOC(=O)C(C)(C)C)=C(/C=C\c3scnc3C)CS[C@H]12)c1csc(N)n1` [Cefditoren (Pivoxil)], for which the “Cholesterol-free media + simvastatin (0.04 μM)” value in experiment [1] (setting [8]) is 0.7736. Besides, the “Complete Media” value in experiment [1] (setting [9]) was 0.8262. Also, the Difference in experiment [1] (setting [10]) is 0.05; in experiment [2] (setting [11]), −0.05. In experiment [2] (setting [12]), this compound gave a Cholesterol-free of 1.012. The compound also came in with a Complete in experiment [2] (setting [13]) of 0.9665.

With `CN(Cc1ccc(C(C)(C)C)cc1)Cc1cccc2ccccc12` [Butenafine (Hydrochloride)], in experiment [1] (setting [14]), the “Cholesterol-free media + simvastatin (0.04 μM)” value was 1.078. For the same compound, in experiment [1] (setting [15]), the “Complete Media” value was 1.061. The values for the Difference in experiment [1] (setting [16]) and in experiment [2] (setting [7]) were −0.02 and −0.33, respectively. Also, the Cholesterol-free in experiment [2] (setting [6]) was 1.694. For the same compound, in experiment [2] (NCI-H292 cells, complete media), the Complete worked out at 1.364.

For `CCCC[C@H](C)C[C@H](O)/C=C/[C@H]1[C@H](O)CC(=O)[C@@H]1CCCC/C=C/C(=O)O` [Limaprost], the “Cholesterol-free media + simvastatin (0.04 μM)” value in experiment [1] (setting [17]) turned out to be 1.214. In addition, the “Complete Media” value in experiment [1] (drug in complete media) was 0.9724. Also, the Difference is recorded as −0.24 in experiment [1] (setting [5]) and −0.45 in experiment [2] (setting [7]). The compound further gave a Cholesterol-free in experiment [2] (setting [6]) of 1.4. The same compound gave a Complete in experiment [2] (NCI-H292 cells, complete media) of 0.949.

In the case of `C[C@@H]1CCN(C(=O)CC#N)C[C@@H]1N(C)c1ncnc2[nH]ccc12` [Tofacitinib], in experiment [1] (setting [8]), the “Cholesterol-free media + simvastatin (0.04 μM)” value turned out to be 1.188. In addition, the “Complete Media” value in experiment [1] (setting [9]) is given as 1.224. In addition, the Difference in experiment [1] (setting [10]) is given as 0.04; in experiment [2] (setting [11]), −0.07. In experiment [2] (setting [12]), this compound came in with a Cholesterol-free of 1.303. Also, the Complete in experiment [2] (setting [13]) was 1.238.

Consider `O=C(Nc1cccc2c(=O)cc(-c3nnn[nH]3)oc12)c1ccc(OCCCCc2ccccc2)cc1` [Pranlukast], for which the “Cholesterol-free media + simvastatin (0.04 μM)” value in experiment [1] (setting [3]) came out at 0.7995. Besides, the “Complete Media” value in experiment [1] (setting [4]) came out at 1.23. Also, the Difference is 0.43 in experiment [1] (setting [10]) and −0.10 in experiment [2] (setting [18]). This compound showed a Cholesterol-free in experiment [2] (setting [19]) of 0.9973. Moreover, the Complete in experiment [2] (setting [20]) turned out to be 0.8953.

On to `CCN(CC)CCOC(=O)C(Cc1cccc2ccccc12)CC1CCCO1.O=C(O)C(=O)O` (stereo not drawn) [Naftidrofuryl (oxalate)], for which, in experiment [1] (setting [14]), the “Cholesterol-free media + simvastatin (0.04 μM)” value amounted to 1.139. In experiment [1] (setting [15]), the “Complete Media” value was found to be 1.076. Also, the Difference in experiment [1] (setting [16]) is −0.06; in experiment [2] (setting [11]) it was −0.04. Moreover, the Cholesterol-free in experiment [2] (setting [12]) is listed as 1.015. This compound also displayed a Complete in experiment [2] (setting [13]) of 0.9733.

For the compound `C#CCC(Cc1cnc2nc(N)nc(N)c2n1)c1ccc(C(=O)N[C@@H](CCC(=O)O)C(=O)O)cc1` (stereo partly drawn) [Pralatrexate], the “Cholesterol-free media + simvastatin (0.04 μM)” value in experiment [1] (setting [3]) is listed as 0.194. The “Complete Media” value in experiment [1] (setting [4]) came out at 0.0957. Besides, the Difference in experiment [1] (setting [5]) was −0.10; in experiment [2] (setting [11]), 0.03. Also, the Cholesterol-free in experiment [2] (setting [12]) was determined as 0.04874. Also, the Complete in experiment [2] (setting [13]) turned out to be 0.07794.

For the compound `CO[C@H]1O[C@@H]2O[C@@]3(C)CC[C@H]4[C@H](C)CC[C@@H]([C@H]1C)[C@@]24OO3` [Artemether], the “Cholesterol-free media + simvastatin (0.04 μM)” value in experiment [1] (setting [3]) came out at 0.6524. Besides, the “Complete Media” value in experiment [1] (setting [4]) is reported as 0.841. Also, the Difference is 0.19 in experiment [1] (setting [10]) and −0.26 in experiment [2] (setting [11]). In addition, in experiment [2] (setting [6]), the Cholesterol-free came out at 1.059. Also, the Complete in experiment [2] (NCI-H292 cells, complete media) is on record as 0.7961.

On to `CO[C@H]1/C=C/O[C@@]2(C)Oc3c(C)c(O)c4c(O)c(c(/C=N/N5CCN(C)CC5)c(O)c4c3C2=O)NC(=O)/C(C)=C\C=C\[C@H](C)[C@H](O)[C@@H](C)[C@@H](O)[C@@H](C)[C@H](OC(C)=O)[C@@H]1C` [Rifampicin], for which, in experiment [1] (setting [21]), the “Cholesterol-free media + simvastatin (0.04 μM)” value came to 1.219. The “Complete Media” value in experiment [1] (setting [22]) stood at 0.8641. For the same compound, the Difference in experiment [1] (setting [5]) was −0.36; in experiment [2] (setting [23]), 0.40. In experiment [2] (setting [12]), this compound gave a Cholesterol-free of 0.7396. The Complete in experiment [2] (setting [13]) stood at 1.143.

As for `CCCCc1oc2ccccc2c1C(=O)c1cc(I)c(OCCN(CC)CC)c(I)c1` [Amiodarone (hydrochloride)], the “Cholesterol-free media + simvastatin (0.04 μM)” value in experiment [1] (setting [8]) is on record as 1.081. In addition, in experiment [1] (setting [9]), the “Complete Media” value amounted to 1.107. Further, the values for the Difference in experiment [1] (setting [10]) and in experiment [2] (setting [24]) were 0.03 and −0.67, respectively. The same compound displayed a Cholesterol-free in experiment [2] (setting [25]) of 1.555. The same compound yielded a Complete in experiment [2] (setting [26]) of 0.8858.

As for `CC(C)(N)CNC(=O)C[C@H]1CC[C@]2(CC1)OO[C@]1(O2)C2CC3CC(C2)CC1C3` [Arterolane], the “Cholesterol-free media + simvastatin (0.04 μM)” value in experiment [1] (setting [3]) came out at 1.129. The “Complete Media” value in experiment [1] (setting [4]) was 1.314. The results for the Difference in experiment [1] (setting [10]) and in experiment [2] (setting [18]) were 0.19 and −0.17, respectively. Besides, in experiment [2] (setting [19]), the Cholesterol-free worked out at 1.167. In experiment [2] (setting [20]), this compound showed a Complete of 0.9934.

`COc1ccc(CCNCC(O)COc2cccc(C)c2)cc1OC` (stereo not drawn) [Bevantolol (hydrochloride)]: the “Cholesterol-free media + simvastatin (0.04 μM)” value in experiment [1] (setting [21]) is given as 1.404. Further, the “Complete Media” value in experiment [1] (setting [22]) is 0.952. For the same compound, the Difference in experiment [1] (setting [5]) was −0.45; in experiment [2] (setting [24]) it was −0.52. This compound had a Cholesterol-free in experiment [2] (setting [25]) of 1.227. For the same compound, the Complete in experiment [2] (setting [26]) was determined as 0.7079.

As to `c1ccc2c(c1)Sc1ccccc1N2CC1CN2CCC1CC2` (stereo not drawn) [Mequitazine], the “Cholesterol-free media + simvastatin (0.04 μM)” value in experiment [1] (setting [8]) is given as 0.8559. Also, the “Complete Media” value in experiment [1] (setting [9]) was found to be 0.9842. The Difference in experiment [1] (setting [10]) is listed as 0.13; in experiment [2] (setting [7]) it was −0.37. The Cholesterol-free in experiment [2] (setting [6]) was found to be 1.704. Besides, the Complete in experiment [2] (NCI-H292 cells, complete media) came out at 1.338.

On to `Cc1c(C(=O)NN2CCCCC2)nn(-c2ccc(Cl)cc2Cl)c1-c1ccc(Cl)cc1` [Rimonabant (Hydrochloride)], for which the “Cholesterol-free media + simvastatin (0.04 μM)” value in experiment [1] (setting [8]) came out at 0.8204. Further, the “Complete Media” value in experiment [1] (setting [9]) was found to be 0.8385. Moreover, the Difference in experiment [1] (setting [10]) was 0.02; in experiment [2] (setting [7]) it was −0.41. Moreover, in experiment [2] (setting [6]), the Cholesterol-free is listed as 1.291. The same compound had a Complete in experiment [2] (NCI-H292 cells, complete media) of 0.882.

`N[C@@H](CSCCCO)C(=O)O` [Fudosteine]: the “Cholesterol-free media + simvastatin (0.04 μM)” value in experiment [1] (setting [3]) is listed as 1.309. Also, in experiment [1] (setting [4]), the “Complete Media” value amounted to 1.163. Also, the Difference in experiment [1] (setting [5]) is reported as −0.15; in experiment [2] (setting [23]), 0.09. Moreover, the Cholesterol-free in experiment [2] (setting [12]) was found to be 1.084. In addition, in experiment [2] (setting [13]), the Complete is listed as 1.177.

In the case of Clopidogrel (hydrogen sulfate), the “Cholesterol-free media + simvastatin (0.04 μM)” value in experiment [1] (setting [17]) was found to be 1.048. Also, the “Complete Media” value in experiment [1] (drug in complete media) is listed as 0.8246. Further, the Difference was −0.22 in experiment [1] (setting [5]) and −0.10 in experiment [2] (setting [18]). Also, the Cholesterol-free in experiment [2] (setting [19]) stood at 1.157. The compound also gave a Complete in experiment [2] (setting [20]) of 1.053.

Turning to `CC1Cc2ccccc2N1NC(=O)c1ccc(Cl)c(S(N)(=O)=O)c1` (stereo not drawn) [Indapamide], the “Cholesterol-free media + simvastatin (0.04 μM)” value in experiment [1] (setting [17]) was 1.217. In experiment [1] (drug in complete media), the “Complete Media” value came out at 0.9676. The values for the Difference in experiment [1] (setting [5]) and in experiment [2] (setting [24]) were −0.25 and −0.63, respectively. The Cholesterol-free in experiment [2] (setting [25]) is given as 1.388. In experiment [2] (setting [26]), this compound showed a Complete of 0.7593.
